One may read the inhibition as the drop in the measured response relative to a control, in per cent. Higher therefore signals a strong effect.

The results in this text go back to ChEMBL document CHEMBL6109096, “Synthesis, anti-allergic rhinitis evaluation and mechanism investigation of novel 1,2,4-triazole-enamides as CB1 R antagonist” (Eur J Med Chem, 2025).

The source made the active and inactive calls. The rule behind the calls is not given here.

In data set [1] the test system is RAW264.7. Nature of the data set: Cytotoxicity against mouse RAW264.7 cells assessed as reduction in cell viability at 10 uM incubated for 24 hrs by CCK-8 assay. In kind it is toxicity, cell-based. To be noted: raw264.7, 24 h. A general note: Formazan colour is commonly taken as a measure of viable cells.
Data set [2] has as its system RAW264.7. Nature of the data set: Inhibition of IL-6 (unknown origin) in mouse RAW264.7 relative to control. Format: cell-based. To be noted: dose or concentration not given here.
Data set [3] relates to RAW264.7. Nature of the data set: Inhibition of IL-1beta (unknown origin) in mouse RAW264.7 relative to control. In kind it is cell-based. To be noted: dose or concentration not given here.
Data set [4] concerns Mus musculus. Briefly: Anti-inflammatory activity in ovalbumin-induced allergic rhinitis male Balb/c mouse model assessed as reduction in nose scratching at 5 mg/kg, po administered via gavage for 7 days. Format: functional, organism-based. To be noted: time 7.0 day.
Data set [5] concerns RAW264.7. Nature of the data set: Downregulation of p-ERK protein expression in LPS-induced mouse RAW264.7 cells by Western blotting analysis. Format: functional, cell-based. For orientation: A western blot detects proteins with antibodies after separation by electrophoresis.
For data set [6], the system named is Mus musculus. Nature of the data set: Anti-inflammatory activity in ovalbumin-induced allergic rhinitis male Balb/c mouse assessed as reduction in inflammation of nasal mucosal tissue at 5 mg/kg, po administered via gavage for 7 days by H and E staining based analysis. Format: functional, organism-based. To be noted: time 7.0 day.
Data set [7] has as its system RAW264.7. Nature of the data set: Downregulation of CB1 R expression in LPS-induced mouse RAW264.7 cells by immunofluorescence staining based analysis. Format: functional, cell-based.
Data set [8] concerns Mus musculus. Nature of the data set: Anti-inflammatory activity in ovalbumin-induced allergic rhinitis male Balb/c mouse model assessed as decrease in p-p38 intranuclear expression in nasal mucosal at 5 mg/kg, po administered via gavage for 7 days by immunofluorescence staining based analysis. In kind it is functional, organism-based. To be noted: time 7.0 day.
In data set [9] the test system is RAW264.7. Nature of the data set: Downregulation of p-P38 intranuclear expression in mouse RAW264.7 cells by immunofluorescence staining based analysis. Format: functional, cell-based.
Data set [10] relates to Mus musculus. Briefly: Anti-inflammatory activity in ovalbumin-induced allergic rhinitis male Balb/c mouse model assessed as reduction in IgE expression at 5 mg/kg, po administered via gavage for 7 days (reference value: 0.268 +/- 0.045). Format: functional. To be noted: time 7 day.
The subject of data set [11] is Mus musculus. Nature of the data set: Anti-inflammatory activity in ovalbumin-induced allergic rhinitis male Balb/c mouse assessed as reduction in number of mast cells on nasal lavage fluid at 5 mg/kg, po administered via gavage for 7 days by giemsa staining based analysis. To be noted: time 7.0 day. In kind it is functional, organism-based.
In data set [12] the test system is Mus musculus. Briefly: Anti-inflammatory activity in ovalbumin-induced allergic rhinitis male Balb/c mouse assessed as reduction in number of goblet cells in nasal mucosal tissues at 5 mg/kg, po administered via gavage for 7 days by PAS staining based analysis. In kind it is functional, organism-based. To be noted: time 7.0 day.
The test system of data set [13] is RAW264.7. Briefly: Downregulation of P-IKBalpha protein expression in LPS-induced mouse RAW264.7 cells by Western blotting analysis. In kind it is functional, cell-based.
In data set [14] the test system is RAW264.7. Briefly: Downregulation of p-P38 protein expression in LPS-induced mouse RAW264.7 cells by Western blotting analysis. In kind it is functional, cell-based.
The subject of data set [15] is Mus musculus. Nature of the data set: Anti-inflammatory activity in ovalbumin-induced allergic rhinitis male Balb/c mouse model assessed as reduction in IL-4 expression in nasal lavage fluid at 5 mg/kg, po administered via gavage for 7 days by ELISA. Format: functional, organism-based. To be noted: time 7.0 day. In general terms: ELISA stands for enzyme-linked immunosorbent assay.

For data set [16], the system named is Mus musculus. Nature of the data set: Anti-inflammatory activity in ovalbumin-induced allergic rhinitis male Balb/c mouse model assessed as reduction in sneezing at 5 mg/kg, po administered via gavage for 7 days. Format: functional, organism-based. To be noted: time 7.0 day.
Data set [17] relates to RAW264.7. Briefly: Downregulation of p-P38 expression in mouse RAW264.7 cells by immunofluorescence staining based analysis. Format: functional, cell-based.
Data set [18] concerns Mus musculus. Briefly: Anti-inflammatory activity in ovalbumin-induced allergic rhinitis male Balb/c mouse model assessed as reduction in serum histamine expression at 5 mg/kg, po administered via gavage for 7 days by ELISA. In kind it is functional, organism-based. To be noted: time 7.0 day.
The test system of data set [19] is RAW264.7. Briefly: Downregulation of P-P65 protein expression in LPS-induced mouse RAW264.7 cells by Western blotting analysis. Format: functional, cell-based.
In data set [20] the test system is Mus musculus. Nature of the data set: Anti-inflammatory activity in ovalbumin-induced allergic rhinitis male Balb/c mouse assessed as reduction in number of eosinophils on nasal lavage fluid at 5 mg/kg, po administered via gavage for 7 days by giemsa staining based analysis. Format: functional, organism-based. To be noted: time 7.0 day.
The test system of data set [21] is RAW264.7. Briefly: Downregulation of p-JNK protein expression in LPS-induced mouse RAW264.7 cells by Western blotting analysis. Format: functional, cell-based.
For data set [22], the system named is Mus musculus. Nature of the data set: Anti-inflammatory activity in ovalbumin-induced allergic rhinitis male Balb/c mouse assessed as reduction in number of cells on nasal lavage fluid at 5 mg/kg, po administered via gavage for 7 days by giemsa staining based analysis. Format: functional, organism-based. To be noted: time 7.0 day.

Regarding `Cc1cc(C)c(-c2nc(C(=O)N(C)/C=C\c3ccccc3)nn2-c2ccccc2)c(C)c1`, the Activity result in the data set on RAW264.7 [1] was “Non-toxic”.
The same measure, in the same setting: the same measure for `CN(/C=C\c1ccccc1)C(=O)c1nc(-c2cccs2)n(-c2ccccc2)n1`: “Non-toxic”; for `CN(/C=C\c1ccccc1)C(=O)c1nc(-c2ccco2)n(-c2ccccc2)n1`: “Non-toxic”; for `CC(C)c1nc(C(=O)N(C)/C=C\c2ccccc2)nn1-c1ccccc1`: “Non-toxic”.
Take `CN(/C=C\c1ccccc1)C(=O)c1nc(-c2ccc(Cl)cc2)n(-c2ccccc2)n1`: the Activity result with RAW264.7 [1] is given as “Non-toxic”.
`CN(/C=C\c1ccccc1)C(=O)c1nc(-c2ccc3ccccc3c2)n(-c2ccccc2)n1`: in the data set on RAW264.7 [1], the Activity result is on record as “Non-toxic”.
As for `CN(/C=C\c1ccccc1)C(=O)c1nc(-c2cccc3ccccc23)n(-c2ccccc2)n1`, the values for the inhibition with RAW264.7 [2] and in the data set on RAW264.7 [3] were 86% and 74%, respectively. Further, the Activity result in the data set with RAW264.7 [1] is reported as “Non-toxic”.
For the molecule `CN(/C=C\c1ccccc1)C(=O)c1nc(-c2ccc(C(F)(F)F)cc2)n(-c2ccccc2)n1`, the Activity result with RAW264.7 [1] is on record as “Non-toxic”.
Turning to `Cc1cccc(-c2nc(C(=O)N(C)/C=C\c3ccccc3)nn2-c2ccccc2)c1`, in the data set with RAW264.7 [1], the Activity result is recorded as “Non-toxic”.
Take `Cc1ccccc1-c1nc(C(=O)N(C)/C=C\c2ccccc2)nn1-c1ccccc1`: in the data set on RAW264.7 [1], the Activity result is reported as “Non-toxic”.
In the case of `Cc1ccc(-c2nc(C(=O)N(C)/C=C\c3ccccc3)nn2-c2ccccc2)cc1`, the Activity entry in the data set on RAW264.7 [1] is reported as “Non-toxic”.
The same measure, in the same setting: next, `CN(/C=C\c1ccccc1)C(=O)c1nc(-c2ccccc2)n(-c2ccccc2)n1`: “Non-toxic”.
The same measure, in the same setting: the same measure for `CN(/C=C\c1ccccc1)C(=O)c1nc(-c2ccc(Br)cc2)n(-c2ccccc2)n1`: “Non-toxic”; for `CN(/C=C\c1ccccc1)C(=O)c1nc(-c2ccc(F)cc2)n(-c2ccccc2)n1`: “Non-toxic”; for `CN(/C=C\c1ccccc1)C(=O)c1ncn(-c2ccccc2)n1`: “Non-toxic”.
As for `CN(/C=C\c1ccccc1)C(=O)c1nc(CC(C)(C)C)n(-c2ccccc2)n1`, the Activity result in the data set on RAW264.7 [1] is reported as “Non-toxic”.
As to `C[C@@H]1C[C@H]2[C@@H]3CCC4=CC(=O)C=C[C@]4(C)[C@@]3(F)[C@@H](O)C[C@]2(C)[C@@]1(O)C(=O)CO` [DEXAMETHASONE], the result in the data set on Mus musculus [4], in the data set with RAW264.7 [5], in the data set with Mus musculus [6], with RAW264.7 [7], in the data set on Mus musculus [8] and in the data set with RAW264.7 [9] was Active. For the same molecule, the result in the data set with Mus musculus [11], in the data set with Mus musculus [12], with RAW264.7 [13], in the data set with RAW264.7 [14], in the data set on Mus musculus [15] and in the data set on Mus musculus [16] was Active. For the same molecule, the outcome in the data set on RAW264.7 [17], in the data set with Mus musculus [18], with RAW264.7 [19], with Mus musculus [20], in the data set on RAW264.7 [21] and with Mus musculus [22] was Active. For the same molecule, the Activity with Mus musculus [10] came out at 0.126.
`CCCc1nc(C(=O)N(C)/C=C\c2ccccc2)nn1-c1ccccc1`: the Activity result in the data set with RAW264.7 [1] is reported as “Non-toxic”.
For `CN(/C=C\c1ccccc1)C(=O)c1nc(-c2ccccc2Cl)n(-c2ccccc2)n1`, the Activity entry with RAW264.7 [1] was “Non-toxic”.
Still for that read-out and setting: the same measure for `CN(/C=C\c1ccccc1)C(=O)c1nc(-c2cccc(Cl)c2)n(-c2ccccc2)n1`: “Non-toxic”; for `Cc1nc(C(=O)N(C)/C=C\c2ccccc2)nn1-c1ccccc1`: “Non-toxic”.
On the same count and under the same terms, the same measure for `CCc1nc(C(=O)N(C)/C=C\c2ccccc2)nn1-c1ccccc1`: “Non-toxic”.
In the data set on RAW264.7 [3], `CN(/C=C\c1ccccc1)C(=O)/C=C/c1ccccc1` came in with an inhibition of 19%.
